Earlier results as cited in patent US5846980A, “N-(benzhydryloxyalkyl)-4-(carboxy/carbamoyl methyl)-piperidine derivatives as antidepressants” (Cooperation Pharmaceutique Francaise, priority 1994, dated 1998).

Assays:
[1] = tested on: ptosis and hypothermia induced by reserpine; settings: in vivo
[2] = tested on: motor activity of the animals; settings: in vivo
stereotypic behaviors = settings: in vivo
[3] = tested on: sleep induced by phenobarbital; settings: in vivo
[4] = tested on: immobility time of the mouse

For `CN1Cc2c(N)cccc2C(c2ccccc2)C1` (stereo not drawn) [1,2,3,4-tetrahydro-2-methyl-4-phenyl-8-isoquinolinamine], which “antidepressant activity in human clinical studies” value (antidepressant activity) is on record?
Its value is “this effect is demonstrated in human clinical studies”.

With “1-[2-(Diphenylmethoxy)ethyl]-4-(3-phenylpropenyl)piperazine” as the compound, how does the “antagonism of the hypothermia induced by reserpine” value [1] read?
The value was “antagonizes neither the ptosis nor the hypothermia induced by reserpine”.

What about the “antagonism of the ptosis induced by reserpine” value [1] of the same compound?
The value was “antagonizes neither the ptosis nor the hypothermia induced by reserpine”.

What about the “motor activity of the animals” value [2] of the same compound?
The value was “increases the motor activity of the animals”.

What about the stereotypic behaviors (stereotypic behaviors) of the same compound?
The stereotypic behaviors was “induces stereotypic behaviors”.

And the “sleep induced by phenobarbital” value [3]?
The value was “decreases the sleep induced by phenobarbital”.

And the “immobility time in the behavioral despair test” value [4]?
Its value is “decreases the immobility time of the mouse”.

For `c1ccc2sc(C3(N4CCCCC4)CCCCC3)cc2c1` [1-[1-(2-Benzo[b]thiophenyl)cyclohexyl]piperidine], which “inhibition of noradrenaline re-uptake” value (noradrenaline re-uptake) is on record?
The value was “inhibit dopamine and noradrenaline re-uptake”.

What about the “inhibition of dopamine re-uptake” value (dopamine re-uptake) of the same compound?
Its value is “inhibit dopamine and noradrenaline re-uptake”.
